The source of these data is paper PMC6934184, “Selective DNA-PKcs inhibition extends the therapeutic index of localized radiotherapy and chemotherapy” (The Journal of Clinical Investigation, 2019).

The target of this experiment is T1, RPS6KA1 (RSK1) (Homo sapiens, UniProt Q15418).
T1 construct: purchased Thermo Fisher Scientific (Life Technologies) SelectScreen
The experiment in a line: SelectScreen Z'LYTE. It is filed as biochemical. Summed up:
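SelectScreen broad panel; activity (Z'LYTE, Adapta) plus binding formats. ATP: Km app for CSF1R Z'LYTE; 10 for CAMK1 Adapta. Readout = % per kinase.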

Broadly, the inhibition is the drop in the measured response relative to a control, in per cent. Lower therefore signals little suppression.

T1 sequence (Q15418 whole entry): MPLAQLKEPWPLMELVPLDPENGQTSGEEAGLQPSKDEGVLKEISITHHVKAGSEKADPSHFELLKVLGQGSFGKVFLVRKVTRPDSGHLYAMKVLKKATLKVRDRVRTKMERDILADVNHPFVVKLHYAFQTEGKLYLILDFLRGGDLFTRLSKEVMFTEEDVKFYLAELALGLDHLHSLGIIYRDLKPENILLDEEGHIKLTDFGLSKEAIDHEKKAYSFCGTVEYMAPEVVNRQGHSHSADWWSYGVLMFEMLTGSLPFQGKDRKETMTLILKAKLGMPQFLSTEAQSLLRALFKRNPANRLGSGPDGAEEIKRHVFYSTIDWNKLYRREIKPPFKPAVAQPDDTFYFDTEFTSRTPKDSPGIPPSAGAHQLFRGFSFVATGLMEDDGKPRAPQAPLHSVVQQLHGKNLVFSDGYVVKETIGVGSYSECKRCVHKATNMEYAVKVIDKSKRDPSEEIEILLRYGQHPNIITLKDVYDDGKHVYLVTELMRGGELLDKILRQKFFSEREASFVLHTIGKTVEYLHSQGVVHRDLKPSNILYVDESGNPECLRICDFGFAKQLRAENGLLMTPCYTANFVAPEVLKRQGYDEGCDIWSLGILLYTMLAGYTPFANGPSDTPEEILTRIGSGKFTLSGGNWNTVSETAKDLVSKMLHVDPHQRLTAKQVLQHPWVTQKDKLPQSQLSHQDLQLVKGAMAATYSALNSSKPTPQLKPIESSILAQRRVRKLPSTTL

The molecule `CN(C(=O)CN1CCOCC1)c1ccc2sc3c(-c4cccc5c(=O)cc(N6CC7CCC(C6)O7)oc45)cccc3c2c1` [NU5455] returned an inhibition at 1 µM of 5.7%.
